In US20240325363A1, “COMPOSITION FOR TREATMENT OF ANTICANCER AGENT-RESISTANT CANCER” (ONCOCROSS CO.,LTD., priority 2021, published 2024):

Experiments:
HCT116 cells = experiment: Cell cycle analysis by PI staining and flow cytometry; format: cell-based, human; conditions: 24 hours, PI staining flow cytometry
Procedure: (§1) To determine whether the inhibition of KRAS by GW8510 was regulated through Cdk2 inhibition, HCT116 cells were treated with other CDK inhibitors, such as PKC inhibitor H7, Cdk2 inhibitor CVT-313, and Cdk4/6 inhibitor PD0332991, other than GW8510 (Cdk2 inhibitor) for 24 hours, respectively, and then to analyze the cell cycle, the cells were subjected to PI staining and confirmed by flow cytometry, and the KRAS expression levels were confirmed by Endpoint PCR and qRT-PCR.

KRAS [1] = experiment: KRAS mRNA expression by Endpoint PCR / qRT-PCR in cancer cell lines; format: cell-based, human; conditions: for KRAS expression: HCT116 cells, comparison with other CDK inhibitors
Procedure: (§2) In order to confirm the effect of inhibiting KRAS expression by GW8510, a human colon cancer cell line HCT116 with a KRAS G13D mutation, a human prostate cancer cell line PC-3 with a KRAS G13D mutation, a human breast cancer cell line MCF7 as a KRAS wild-type cell line, a human pancreatic cancer cell line MIA PaCa-2 with a KRAS G12C mutation, and a human pancreatic cancer cell line PANC-1 with a KRAS G12D mutation were dispensed in a 6-well plate, and treated with GW8510 at 0, 1, 5 or 10 μM of concentration for 3, 6, 24 or 48 hours. Thereafter, RNA was extracted from the cells using a TRIzol™ Reagent (Thermo Fisher Scientific Inc., USA) and then cDNA was synthesized using M-MLV reverse-transcriptase (ELPIS Biotech, Korea), 2.5 mM dNTP (TransGen Biotech, China), and oligo dT15 (bioneer, Korea). Endpoint PCR was performed using an Endpoint PCR solution mixed with the synthesized cDNA, Taq polymerase master mix, and primers shown in Table 1 below, and a QuantStudio 3 Real-Time PCR Instrument (Thermo Fisher Scientific Inc., USA). Thereafter, the mRNA level of KRAS was confirmed by loading the Endpoint PCR solution on an agarose gel. In addition, the mRNA levels of nuclear transcription factor Y (NYFA) and X-linked inhibitor of apoptosis protein (XIAP) as a protein of inhibiting apoptosis, were also confirmed together with KRAS.
(§3) A colon cancer cell line HCT116 (KRAS G13D mut), pancreatic cancer cell lines PANC-1 (KRAS G12D mut) and MIA PaCa-2 (KRAS G12C mut), and a breast cancer cell line MCF7 (KRAS wt) were dispensed in a 6-well plate, and treated with GW8510 at 0, 1, 5 or 10 μM of concentration for 24 hours, and then Endpoint PCR was performed. In addition, a qRT-PCR solution was prepared by mixing SYBR Green Master Mix, the cDNA of Example 2-1, and the primers in Table 1, and qRT-PCR was performed with QuantStudio 3 Real-Time PCR Instrument (Thermo Fisher Scientific Inc., USA) to quantify the gene expression levels. In addition, the phenotypes of the cancer cell line were observed by treatment of GW8510 by using the colon cancer cell line HCT116 treated with GW8510 at 0 or 10 μM of concentration for 24 hours, and the protein expression levels of pan ras, K-ras, and β-actin were measured by immunoblot. Specifically, the colon cancer cell line HCT116 treated with GW8510 at 0 or 10 μM of concentration for 24 hours was lysed with an RIPA buffer (Curebio, Korea), and then the cell lysate was centrifuged and the supernatant was taken. The cell lysate supernatant was added with a 5×SDS sample buffer and then boiled for 10 minutes, and electrophoresis was performed using a 12% SDS polyacrylamide gel. After electrophoresis, a protein was transferred to a PVDF membrane and then blocked with 5% skim milk (TBS-T) at room temperature for 1 hour. Thereafter, primary antibodies (anti-pan ras, anti-K-ras, and anti-β-actin) diluted in a blocking solution at 1:1000 were added and incubated at 4° C. overnight, and then a membrane was washed three times with 0.05% TBS-T, and a secondary antibody (horseradish peroxidase-conjugated 2nd Ab) diluted at 1:10000 was added and incubated for 1 hour at room temperature. The membrane was washed three times with 0.05% TBS-T, developed with an enhanced chemiluminescence (ECL) solution, and exposed to an X-ray film.
as §1

XIAP = XIAP mRNA expression by Endpoint PCR in cancer cell lines; format: cell-based, human
Procedure: as §2

HCT116 cells xenograft = experiment: HCT116 xenograft model in nude mice, tumor size; format: in vivo, Balb/c nude mice; conditions: GW8510 10 mg/kg i.p. three times a week, cetuximab 1 mg/mouse i.p. once a week
Procedure: Experimental animals used were 36 6-week-old Balb/c nude mice. The experimental diet and drinking water were taken freely, and all experimental diets were stored in a refrigerator during a breeding period. The mice were pre-bred with regular feed to be adapted to a breeding environment for 7 days before the start of the experiment and then divided into a total of 4 groups. […] In all mice, HCT116 cells were injected with 1×10^6 S.C. at 7 weeks of age to prepare a xenograft model. […] The tumor size was measured using Equation of (long axis×short axis×short axis)/2 and measured three times a week at the same time.

KRAS [2] = experiment: KRAS protein expression by immunoblot; format: cell-based, human; conditions: HCT116, GW8510 0 or 10 μM, 24 hours
Procedure: as §3, with “After electrophoresis, a protein was transferred to a PVDF membrane and then blocked with 5% skim milk (TBS-T) at room temperature for 1 hour. Thereafter, primary antibodies (anti-pan ras, anti-K-ras, and anti-β-actin) diluted in a blocking solution at 1:1000 were added and incubated at 4° C. overnight, and then a membrane was washed three times with 0.05% TBS-T, and a secondary antibody (horseradish peroxidase-conjugated 2nd Ab) diluted at 1:10000 was added and incubated for 1 hour at room temperature. The membrane was washed three times with 0.05% TBS-T, developed with an enhanced chemiluminescence (ECL) solution, and exposed to an X-ray film.” left out

NFYA = NFYA mRNA expression by Endpoint PCR in cancer cell lines; format: cell-based, human
Procedure: as §2

[3] = 24 hours, Endpoint PCR and qRT-PCR
[4] = all of the cell lines (HCT116, PC-3, MCF7, MIA PaCa-2, PANC-1)

In the case of `COc1ccc(CNc2nc(N(CCO)CCO)nc3c2ncn3C(C)C)cc1` [CVT-313, reference compound], the cell cycle (HCT116 cells) is reported as “arrested in the GO/G1 phase” and the KRAS expression (KRAS [1]; [3]) is reported as “no change in KRAS expression”.
In the case of `O=C1Nc2ccc3ncsc3c2/C1=C/Nc1ccc(S(=O)(=O)Nc2ccccn2)cc1` [GW8510], the “mRNA expression level of XIAP” value (XIAP; HCT116 cells (KRAS G13D)) is reported as “also decreased”, the “mRNA level of XIAP” value (XIAP; [4]) is reported as “also decreased” and the tumor size (HCT116 cells xenograft) is reported as “tended to decrease compared to the control group”. The KRAS protein level (KRAS [2]) was “also decreased”, the “mRNA expression level of NFYA” value (NFYA; HCT116 cells (KRAS G13D)) was “also decreased” and the “mRNA level of NFYA” value (NFYA; [4]) was “also decreased”. For the same compound, the KRAS transcription level (KRAS [1]; HCT116, PANC-1, MIA PaCa-2 and MCF7, GW8510 0, 1, 5 or 10 μM, 24 hours, Endpoint PCR and qRT-PCR) was “significantly reduced”, the KRAS expression (KRAS [1]; [3]) was “inhibited the KRAS expression” and the “mRNA expression level of KRAS” value (KRAS [1]; HCT116 colon cancer cells (KRAS G13D), GW8510 0, 1, 5 or 10 μM, 3, 6, 24 or 48 hours, effect from 6 hours, Endpoint PCR) was “decreased in a concentration-dependent manner”. The “KRAS mRNA level” value (KRAS [1]; MCF7 breast cancer cells (KRAS wild-type), Endpoint PCR) was “also reduced”, the “KRAS mRNA level” value (KRAS [1]; MIA PaCa-2 pancreatic cancer cells (KRAS G12C), Endpoint PCR) was “decreased” and the “KRAS mRNA level” value (KRAS [1]; PANC-1 pancreatic cancer cells (KRAS G12D), Endpoint PCR) was “decreased”. For the same compound, the “KRAS mRNA level” value (KRAS [1]; PC-3 prostate cancer cells (KRAS G13D), Endpoint PCR) was “decreased”.
`CC1CNCCN1S(=O)(=O)c1cccc2cnccc12` (stereo not shown) [H7, reference compound] was tested, and the cell cycle (HCT116 cells) was “arrested in the GO/G1 phase” and the KRAS expression (KRAS [1]; [3]) was “no change in KRAS expression”.
In the case of `CC(=O)c1c(C)c2cnc(Nc3ccc(N4CCNCC4)cn3)nc2n(C2CCCC2)c1=O` [PD0332991, reference compound], the cell cycle (HCT116 cells) is reported as “arrested in the GO/G1 phase” and the KRAS expression (KRAS [1]; [3]) is reported as “no change in KRAS expression”.
